How the values were obtained:
Saccharomyces cerevisiae [1] = assay: DNA damaging activity in yeast RS 322YK mutant assessed as drug level required to produce 12 mm zone of inhibition; assay type: functional
Saccharomyces cerevisiae [2] = assay: DNA damaging activity in yeast RS 188N mutant assessed as drug level required to produce 12 mm zone of inhibition; assay type: functional

## C=C[C@H]1[C@H](O[C@@H]2O[C@H](CO)[C@@H](O)[C@H](O)[C@H]2O)OC=C(C(=O)OC)[C@H]1C[C@@H]1N[C@@H](C(=O)O)Cc2c1[nH]c1ccccc21
Saccharomyces cerevisiae [1]
  IC12: 100 µg/mL
Saccharomyces cerevisiae [2]
  IC12: > 250 µg/mL

## C/C=C(\C=O)[C@@H]1C[C@H]2c3[nH]c4ccccc4c3CCN2C=C1C(=O)OC [ISOVALLESIACHOTAMINE]
Saccharomyces cerevisiae [1]
  IC12: 100 µg/mL
Saccharomyces cerevisiae [2]
  IC12: > 250 µg/mL

## C=C[C@H]1[C@H](O[C@@H]2O[C@H](CO)[C@@H](O)[C@H](O)[C@H]2O)OC=C(C(=O)OC)[C@H]1C[C@@H]1NCCc2c1[nH]c1ccccc21 [STRICTOSIDINE]
Saccharomyces cerevisiae [1]
  IC12: 100 µg/mL
Saccharomyces cerevisiae [2]
  IC12: > 250 µg/mL

## C=C[C@H]1[C@@H](/C(=C/O)C(=O)OC)C[C@H]2c3[nH]c4ccccc4c3CCN2[C@H]1O[C@H]1O[C@@H](CO)[C@H](O)[C@@H](O)[C@@H]1O [TURBINATINE]
Saccharomyces cerevisiae [1]
  IC12: 100 µg/mL
Saccharomyces cerevisiae [2]
  IC12: > 250 µg/mL

## C/C=C(/C=O)[C@@H]1C[C@H]2c3[nH]c4ccccc4c3CCN2C=C1C(=O)OC [VALLESIACHOTAMINE]
Saccharomyces cerevisiae [1]
  IC12: 100 µg/mL
Saccharomyces cerevisiae [2]
  IC12: > 250 µg/mL

From ChEMBL document CHEMBL1146562, “Turbinatine, a potential key intermediate in the biosynthesis of corynanthean-type indole alkaloids” (2003)
